Experimental data as given in ChEMBL document CHEMBL5131469, “Design, synthesis and biological evaluation of novel procaine derivatives for intravenous anesthesia” (Bioorg Med Chem Lett, 2022).
Active and inactive are the calls of the source. The rule behind the calls is not given here.

Legend:
[1] = Lipophilicity, log D of the compound; type: physicochemical; settings: octanol/water
Mus musculus [2] = test: Anesthetic activity in mouse assessed as loss of righting […] administered as single injection via caudal vein; type: functional; settings: route iv
[3] = Toxicity in mouse administered as single injection via caudal vein; settings: in vivo, route iv
[4] = Therapeutic index, ratio of LD50 for toxicity in mouse to ED50 for anesthetic activity in mouse; type: organism-based; settings: in vivo, read-out: Ratio LD50/ED50
[5] = Toxicity in mouse assessed as adverse effect at 1.5 times ED50, iv; settings: in vivo
Rattus norvegicus = test: Anesthetic activity in iv dosed rat assessed as loss of righting […] administered continuously; type: functional
[6] = Toxicity in iv dosed rat administered continuously; type: organism-based; settings: in vivo
[7] = Therapeutic index, ratio of LD50 for toxicity in iv dosed rat to ED50 for anesthetic activity in iv dosed rat; type: organism-based; settings: in vivo, read-out: Ratio LD50/ED50
[8] = Toxicity in iv dosed rat assessed as muscle fibrillation administered continuously; type: organism-based; settings: in vivo
[9] = Toxicity in iv dosed rat assessed as convulsion administered continuously; type: organism-based; settings: in vivo
[10] = Toxicity in iv dosed rat assessed as muscular rigidity administered continuously; type: organism-based; settings: in vivo
[11] = Toxicity in iv dosed rat assessed as cyanosis administered continuously; type: organism-based; settings: in vivo
[12] = Toxicity in iv dosed rat assessed as irregular respiratory rhythm administered continuously; type: organism-based; settings: in vivo
[13] = Hepatotoxicity in iv dosed rat assessed as change in AST level administered continuously; type: toxicity, organism-based; settings: in vivo
[14] = Hepatotoxicity in iv dosed rat assessed as change in ALT level administered continuously; type: toxicity, organism-based; settings: in vivo
[15] = Nephrotoxicity in iv dosed rat assessed as change in creatinine level administered continuously; type: toxicity, organism-based; settings: in vivo
[16] = Nephrotoxicity in iv dosed rat assessed as change in urea level administered continuously; type: toxicity, organism-based; settings: in vivo
[17] = Cardiotoxicity in iv dosed rat assessed as change in CK-MB level administered continuously; type: toxicity, organism-based; settings: in vivo
[18] = Cardiotoxicity in iv dosed rat assessed as change in alpha-HBDH level administered continuously; type: toxicity, organism-based; settings: in vivo
[19] = Cardiotoxicity in iv dosed rat assessed as change in LDH level administered continuously; type: toxicity, organism-based; settings: in vivo
[20] = Hepatotoxicity in iv dosed rat assessed as morphological change in liver administered continuously; type: toxicity, organism-based; settings: in vivo
[21] = Nephrotoxicity in iv dosed rat assessed as morphological change in kidney administered continuously; type: toxicity, organism-based; settings: in vivo
[22] = Cardiotoxicity in iv dosed rat assessed as morphological change in heart administered continuously; type: toxicity, organism-based; settings: in vivo
[23] = Toxicity in iv dosed rat assessed as body weight loss administered continuously as infusion for 2 weeks; type: organism-based; settings: in vivo, 336 h
Mus musculus [24] = test: Anesthetic activity in mouse assessed as reduction in recovery time of righting reflex at 1.5 times ED50, iv; type: functional, organism-based
[25] = Toxicity in mouse assessed as muscular rigidity at 1.5 times ED50, iv; settings: in vivo
[26] = Toxicity in mouse assessed as convulsion at 1.5 times ED50, iv; settings: in vivo
[27] = Toxicity in mouse assessed as severe respiratory suppression at 1.5 times ED50, iv; settings: in vivo
[28] = Toxicity in mouse assessed as angular tension at 1.5 times ED50, iv; settings: in vivo
[29] = Toxicity in mouse assessed as ankylosis at 1.5 times ED50, iv; settings: in vivo
[30] = Stability in human liver microsomes measured within 60 mins; type: ADME, Microsome; settings: 1 h
[31] = Stability in plasma (unknown origin); type: ADME, cell-free; settings: unidentified
[32] = target: Voltage-gated inwardly rectifying potassium channel KCNH2 (Homo sapiens, UniProt Q12809); test: Inhibition of human ERG
HEK293 = test: Reversible inhibition of human NR2B receptor expressed in HEK293 cells assessed as inhibition of L-glutamate-induced open-phase current at 500 uM in presence of glycine by whole-cell patch-clamp method relative to control; type: cell-based
[33] = Solubility of the compound at pH 2; type: physicochemical; settings: buffer

Sequence of Voltage-gated inwardly rectifying potassium channel KCNH2 (Q12809 whole entry): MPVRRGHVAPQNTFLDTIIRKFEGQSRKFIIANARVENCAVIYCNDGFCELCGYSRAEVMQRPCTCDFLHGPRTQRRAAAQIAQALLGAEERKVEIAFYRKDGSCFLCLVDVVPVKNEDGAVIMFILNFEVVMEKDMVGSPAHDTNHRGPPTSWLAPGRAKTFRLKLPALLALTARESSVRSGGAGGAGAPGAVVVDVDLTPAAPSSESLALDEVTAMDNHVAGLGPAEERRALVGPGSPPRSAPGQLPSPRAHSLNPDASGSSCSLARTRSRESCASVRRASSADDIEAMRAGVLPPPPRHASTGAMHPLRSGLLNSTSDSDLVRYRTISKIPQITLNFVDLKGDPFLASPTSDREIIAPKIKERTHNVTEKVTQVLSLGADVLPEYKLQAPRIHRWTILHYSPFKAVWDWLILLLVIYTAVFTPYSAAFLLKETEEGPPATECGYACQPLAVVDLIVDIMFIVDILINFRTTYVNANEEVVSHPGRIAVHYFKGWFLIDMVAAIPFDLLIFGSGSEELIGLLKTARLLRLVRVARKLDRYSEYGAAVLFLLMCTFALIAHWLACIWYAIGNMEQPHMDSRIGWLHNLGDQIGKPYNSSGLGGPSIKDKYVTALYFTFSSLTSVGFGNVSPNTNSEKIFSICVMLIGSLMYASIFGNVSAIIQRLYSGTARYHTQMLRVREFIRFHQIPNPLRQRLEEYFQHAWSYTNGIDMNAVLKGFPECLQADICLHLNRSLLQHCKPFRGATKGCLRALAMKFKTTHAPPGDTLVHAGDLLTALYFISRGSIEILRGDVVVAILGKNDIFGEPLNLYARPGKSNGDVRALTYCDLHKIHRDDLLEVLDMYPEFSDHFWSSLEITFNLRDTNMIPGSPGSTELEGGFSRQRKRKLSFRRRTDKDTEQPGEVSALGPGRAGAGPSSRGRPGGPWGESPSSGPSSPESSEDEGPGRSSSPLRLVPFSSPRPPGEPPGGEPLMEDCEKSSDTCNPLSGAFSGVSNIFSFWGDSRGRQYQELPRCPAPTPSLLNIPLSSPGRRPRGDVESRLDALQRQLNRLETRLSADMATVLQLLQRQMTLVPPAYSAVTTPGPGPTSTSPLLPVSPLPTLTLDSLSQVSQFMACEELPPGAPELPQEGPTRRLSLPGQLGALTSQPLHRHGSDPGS

Row | Compound | logD [1] | ED50 (Mus musculus [2]) [mg/kg] | LD50 [3] [mg/kg] | selectivity ratio [4] | other results
1 | CCN(CC)CCOC(=O)c1ccc(N)cc1 [PROCAINE] | 1.07 | 42.8 | 70.5 | 1.65 | Activity [5]: Toxic; ED50 (Rattus norvegicus): 50.4 mg/kg; LD50 [6]: 78.8 mg/kg; selectivity ratio [7]: 1.56; Activity [8]: Toxic; Activity [9]: Toxic; Activity [10]: Toxic; Activity [11]: Toxic; Activity [12]: Toxic; Activity [13]: Non-Toxic; Activity [14]: Non-Toxic; Activity [15]: Non-Toxic; Activity [16]: Non-Toxic; Activity [17]: Non-Toxic; Activity [18]: Non-Toxic; Activity [19]: Non-Toxic; Activity [20]: Non-Toxic; Activity [21]: Non-Toxic; Activity [22]: Non-Toxic; Activity [23]: Non-Toxic
2 | CC1CN(CCOC(=O)c2ccc(N)cc2)CCO1 (stereo unspecified) | 1 | 90.2 | 188 | 2.08 | Activity (Mus musculus [24]): Active; Activity [25]: Toxic
3 | CC1COCC(C)N1CCOC(=O)c1ccc(N)cc1 (stereo unspecified) | 0.42 | 160 | 399 | 2.49 | –
4 | CCN(CCOC)CCOC(=O)c1ccc(N)cc1 | 0.96 | 39.6 | 60.3 | 1.52 | –
5 | CC(C)N1CCN(CCOC(=O)c2ccc(N)cc2)CC1 | 0.92 | 52.8 | 58.6 | < 1.5 | –
6 | CCN1CCN(CCOC(=O)c2ccc(N)cc2)CC1 | 0.81 | 56 | 64.3 | < 1.5 | –
7 | CC1CC(C)CN(CCOC(=O)c2ccc(N)cc2)C1 (stereo unspecified) | 3.2 | 33.9 | 68.5 | 2.02 | Activity [26]: Toxic; Activity [27]: Toxic; Activity [28]: Toxic; Activity [29]: Toxic
8 | COCCN(CCOC)CCOC(=O)c1ccc(N)cc1 | 0.83 | 55.2 | 104 | 1.89 | –
9 | CC1CN(CCOC(=O)c2ccc(N)cc2)CC(C)O1 (stereo unspecified) | 1.24 | 59.3 | 159 | 2.68 | Activity (Mus musculus [24]): Active; Activity [5]: Toxic; ED50 (Rattus norvegicus): 66 mg/kg; LD50 [6]: 180 mg/kg; selectivity ratio [7]: 2.73; Stability [30]: Stable; Stability [31]: Unstable; Activity [13]: Non-Toxic; Activity [14]: Non-Toxic; Activity [15]: Non-Toxic; Activity [16]: Non-Toxic; Activity [17]: Non-Toxic; Activity [18]: Non-Toxic; Activity [19]: Non-Toxic; Activity [20]: Non-Toxic; Activity [21]: Non-Toxic; Activity [22]: Non-Toxic; Activity [23]: Non-Toxic; IC50 [32]: > 30 µM; inhibition (HEK293): > 80%
10 | Nc1ccc(C(=O)OCCN2CCSCC2)cc1 | 1.58 | 54 | 126 | 2.33 | solubility [33]: Insoluble
11 | Nc1ccc(C(=O)OCCN2CCS(=O)(=O)CC2)cc1 | 1.63 | 45.5 | 115 | 2.53 | solubility [33]: Insoluble
12 | CCN(CCO)CCOC(=O)c1ccc(N)cc1 | 0.47 | 90.2 | 115 | < 1.5 | –
13 | Nc1ccc(C(=O)OCCN2CCOCC2)cc1 | 0.54 | 148 | 365 | 2.46 | –
14 | CN1CCN(CCOC(=O)c2ccc(N)cc2)CC1 | 0.43 | 84.2 | 100 | < 1.5 | –
15 | Nc1ccc(C(=O)OCCN2CC[S+]([O-])CC2)cc1 | 1.55 | 42.7 | 110 | 2.57 | solubility [33]: Insoluble
16 | Nc1ccc(C(=O)OCCN(CCO)CCO)cc1 | -0.19 | 128 | 160 | < 1.5 | –
17 | CC1COCCN1CCOC(=O)c1ccc(N)cc1 (stereo unspecified) | 0.62 | 119 | 253 | 2.13 | –
18 | CC(C)(C)N1CCN(CCOC(=O)c2ccc(N)cc2)CC1 | 1.15 | 42.2 | 78.4 | 1.86 | –
